This note sets out measurements from patent US9624241B2 (Incyte Corporation, priority 2013, dated 2017).

In test [1] the target is BRD4-BD2 (Homo sapiens (Human), UniProt O60885). Description: BRD4 AlphaScreen Assay (Example A2), BRD4-BD2. Format: binding. The following applies: read-out: BRD4 BD-2 enzyme IC50. The method, then: (§1) BRD4-BD1 and BRD4-BD2 assays were conducted in white 384-well polystyrene plate in a final volume of 40 μL for BD1 and 60 μL for BD2. Inhibitors were first serially diluted in DMSO and added to the plate wells before the addition of other reaction components. […] The assays were carried out at room temperature in the assay buffer (50 mM Tris-HCl, pH 7.5, 0.01% Tween-20, 0.01% BSA, 5 mM DTT), containing 50 nM Biotin-labeled tetra-acetylated histone H4 peptide (H4Ac4) and BRD4-BD1 or BRD4-BD2 protein at concentration less than 1 nM. […] After plate sealing, the plate was incubated in the dark at room temperature for 75 min. before reading on a PHERAstar FS plate reader (BMG Labtech). IC50 determination was performed by fitting the curve of percent control activity versus the log of the inhibitor concentration using the GraphPad Prism 5.0 software.
(In general: Bead proximity is the source of the signal in Alpha formats.)

Test [2] concerns the target BRD4-BD1 (Homo sapiens (Human), UniProt O60885). The test can be described thus: BRD4 AlphaScreen Assay (Example A2), BRD4-BD1. The settings on record: Assay A2, AlphaScreen, BRD4-BD1; read-out: BRD4 BD-1 enzyme IC50. Format: binding. Here is the method:
as §1

Setting [3] is: Assay A2, AlphaScreen, BRD4-BD2.

Where two headings read alike, the source gives them in different places. Where only a bound is given, the exact number is not on record here.

As usually defined, the IC50 is the concentration at which inhibition is half-maximal. In the case of `CCS(=O)(=O)NC1CN(c2nc3ccc(-c4c(C)noc4C)c4c3n2[C@@H](c2ccccn2)CO4)C1` [Example 238, N-{1-[(4S)-7-(3,5-dimethylisoxazol-4-yl)-4-pyridin-2-yl-4,5-dihydroimidazo[1,5,4-de][1,4]benzoxazin-2-yl]azetidin-3-yl}ethanesulfonamide], the IC50 in test [1] (setting [3]) and in test [2] was under 0.1 µM each time.
`Cc1noc(C)c1-c1ccc2nc(C3CCCN(S(C)(=O)=O)C3)n3c2c1OC[C@@H]3c1ccccn1` (mixture of isomers) [Example 119, (4S)-7-(3,5-dimethylisoxazol-4-yl)-2-[1-(methylsulfonyl)piperidin-3-yl]-4-pyridin-2-yl-4,5-dihydroimidazo[1,5,4-de][1,4]benzoxazine (mixture of diastereomers)]: the IC50 in test [1] (setting [3]) and in test [2] was under 0.1 µM in each case.
Regarding `Cc1noc(C)c1-c1cc(C(C)O)c2[nH]c(=O)n3c2c1OC[C@@H]3c1ccccn1` (single isomer, unassigned) [Example 144A], the IC50 in test [1] (setting [3]) is under 0.1 µM; in test [2] it was 0.1 to 1 µM.
For `Cc1noc(C)c1-c1ccc2nc(N3CC(O)C3)n3c2c1OCC3c1cccnc1` (single isomer, unassigned) [Example 160C, 1-[7-(3,5-Dimethylisoxazol-4-yl)-4-pyridin-3-yl-4,5-dihydroimidazo[1,5,4-de][1,4]benzoxazin-2-yl]azetidin-3-ol], the IC50 in test [1] (setting [3]) and in test [2] was 1 to 10 µM throughout.
For the compound `Cc1noc(C)c1-c1cc(Br)c2[nH]c(=O)n3c2c1OCC3c1ccccn1` (single isomer, unassigned) [Example 267B, 9-bromo-7-(3,5-dimethylisoxazol-4-yl)-4-pyridin-2-yl-4,5-dihydroimidazo[1,5,4-de][1,4]benzoxazin-2(1H)-one], the IC50 in test [1] (setting [3]) and in test [2] was under 0.1 µM throughout.
In the case of `Cc1noc(C)c1-c1ccc2[nH]c(=O)n3c2c1OC(C(N)=O)C3c1ccccn1` (centres unmarked) [Example 77, 7-(3,5-dimethylisoxazol-4-yl)-2-oxo-4-pyridin-2-yl-1,2,4,5-tetrahydroimidazo[1,5,4-de][1,4]benzoxazine-5-carboxamide 2,2,2-trifluoroacetate], the IC50 in test [1] (setting [3]) and in test [2] was 0.1 to 1 µM each time.
`CC(=O)N1CCC(c2nc3ccc(-c4c(C)noc4C)c4c3n2[C@@H](c2ccccn2)CO4)C1` (single isomer, unassigned; diastereomer 1) [Example 113A]: the IC50 in test [1] (setting [3]) and in test [2] was under 0.1 µM throughout.
For the compound `Cc1noc(C)c1-c1ccc2nc(C3CCN(C(=O)C4CC4)CC3)n3c2c1OC[C@@H]3c1ccccn1` [Example 111, (4S)-2-[1-(cyclopropylcarbonyl)piperidin-4-yl]-7-(3,5-dimethylisoxazol-4-yl)-4-pyridin-2-yl-4,5-dihydroimidazo[1,5,4-de][1,4]benzoxazine], the IC50 in test [1] (setting [3]) and in test [2] was under 0.1 µM throughout.
For `Cc1noc(C)c1-c1cc(CNC(=O)NC(C)C)c2[nH]c(=O)n3c2c1OC[C@@H]3c1ccccn1` [Example 142, N-{[(4S)-7-(3,5-Dimethylisoxazol-4-yl)-2-oxo-4-pyridin-2-yl-1,2,4,5-tetrahydroimidazo[1,5,4-de][1,4]benzoxazin-9-yl]methyl}-N′-isopropylurea], the IC50 was under 0.1 µM in test [1] (setting [3]) and 0.1 to 1 µM in test [2].
`Cc1noc(C)c1-c1ccc2nc(N(C)CCO)n3c2c1OCC3c1ccccn1` (centres unmarked) [Example 185, 2-[[7-(3,5-dimethylisoxazol-4-yl)-4-pyridin-2-yl-4,5-dihydroimidazo[1,5,4-de][1,4]benzoxazin-2-yl](methyl)amino]ethanol]: the IC50 in test [1] was under 0.1 µM; in test [2], 0.1 to 1 µM.
For `Cc1noc(C)c1-c1cc(C#N)c2[nH]c(=O)n3c2c1OCC3c1ccccn1` (centres unmarked) [Example 269A, 7-(3,5-dimethylisoxazol-4-yl)-2-oxo-4-pyridin-2-yl-1,2,4,5-tetrahydroimidazo[1,5,4-de][1,4]benzoxazine-9-carbonitrile], the IC50 in test [1] (setting [3]) and in test [2] was under 0.1 µM each time.
In the case of `Cc1noc(C)c1-c1cc(-c2cncnc2)c2[nH]c(=O)n3c2c1OC[C@@H]3c1ccccn1` [Example 84, (4S)-7-(3,5-dimethylisoxazol-4-yl)-4-pyridin-2-yl-9-pyrimidin-5-yl-4,5-dihydroimidazo[1,5,4-de][1,4]benzoxazin-2(1H)-one 2,2,2-trifluoroacetate], the IC50 was under 0.1 µM in test [1] (setting [3]) and 0.1 to 1 µM in test [2].
Take `Cc1noc(C)c1-c1ccc2nc(C(=O)OC(C)(C)C)n3c2c1OC[C@@H]3c1ccccn1` [Example 93, tert-Butyl (4S)-7-(3,5-dimethylisoxazol-4-yl)-4-pyridin-2-yl-4,5-dihydroimidazo[1,5,4-de][1,4]benzoxazine-2-carboxylate]: the IC50 in test [1] (setting [3]) and in test [2] was under 0.1 µM throughout.
Consider `Cc1noc(C)c1-c1cc(C#N)c2[nH]c(=O)n3c2c1OCC3c1ccccc1` (centres unmarked) [Example 42, 7-(3,5-Dimethylisoxazol-4-yl)-2-oxo-4-phenyl-1,2,4,5-tetrahydroimidazo[1,5,4-de][1,4]benzoxazine-9-carbonitrile], for which the IC50 in test [1] (setting [3]) and in test [2] was under 0.1 µM each time.
`Cc1noc(C)c1-c1cc(F)c2[nH]c(=O)n3c2c1OCC3c1ccccn1` (centres unmarked) [Example 265B, 7-(3,5-dimethylisoxazol-4-yl)-9-fluoro-4-pyridin-2-yl-4,5-dihydroimidazo[1,5,4-de][1,4]benzoxazin-2(1H)-one]: the IC50 in test [1] (setting [3]) and in test [2] was under 0.1 µM throughout.
On to `Cc1noc(C)c1-c1ccc2[nH]c(=O)n3c2c1OCC3(C(N)=O)c1ccccn1` (centres unmarked) [Example 74, 7-(3,5-Dimethylisoxazol-4-yl)-2-oxo-4-pyridin-2-yl-1,2,4,5-tetrahydroimidazo[1,5,4-de][1,4]benzoxazine-4-carboxamide 2,2,2-trifluoroacetate], for which the IC50 in test [1] (setting [3]) is under 0.1 µM; in test [2] it was 0.1 to 1 µM.
The matching figures for `Cc1noc(C)c1-c1ccc2nc(C3CCNC3)n3c2c1OC[C@@H]3c1ccccn1` (single isomer, unassigned; diastereomer 2) [Example 106B]: under 0.1 µM and under 0.1 µM.
On the same counts, the results for `Cc1noc(C)c1-c1ccc2nc(C(C)O)n3c2c1OC[C@@H]3c1ccccn1` (stereo partly drawn) [Example 90, 1-[(4S)-7-(3,5-Dimethylisoxazol-4-yl)-4-pyridin-2-yl-4,5-dihydroimidazo[1,5,4-de][1,4]benzoxazin-2-yl]ethanol] are under 0.1 µM and under 0.1 µM.
On the same counts, the results for `CCNc1nc2c(F)cc(-c3c(C)noc3C)c3c2n1C(c1cccnc1)CO3` (centres unmarked) [Example 158, 7-(3,5-Dimethylisoxazol-4-yl)-N-ethyl-9-fluoro-4-pyridin-3-yl-4,5-dihydroimidazo[1,5,4-de][1,4]benzoxazin-2-amine] are under 0.1 µM and under 0.1 µM.
`CC(=O)N1CC=C(c2nc3ccc(-c4c(C)noc4C)c4c3n2[C@@H](c2ccccn2)CO4)CC1` [Example 110, (4S)-2-(1-acetyl-1,2,3,6-tetrahydropyridin-4-yl)-7-(3,5-dimethylisoxazol-4-yl)-4-pyridin-2-yl-4,5-dihydroimidazo[1,5,4-de][1,4]benzoxazine]: the IC50 in test [1] (setting [3]) and in test [2] was under 0.1 µM each time.
Consider `Cc1noc(C)c1-c1ccc2[nH]c(=O)n3c2c1OCC3c1cccnc1C(=O)NC1CC1` (single isomer, unassigned) [Example 134, N-Cyclopropyl-3-[7-(3,5-dimethylisoxazol-4-yl)-2-oxo-1,2,4,5-tetrahydroimidazo[1,5,4-de][1,4]benzoxazin-4-yl]pyridine-2-carboxamide], for which the IC50 in test [1] (setting [3]) and in test [2] was under 0.1 µM in each case.
As to `Cc1noc(C)c1-c1cc(CNC(=O)Cc2ccccc2)c2[nH]c(=O)n3c2c1OC[C@@H]3c1ccccn1` [Example 139, N-{[(4S)-7-(3,5-Dimethylisoxazol-4-yl)-2-oxo-4-pyridin-2-yl-1,2,4,5-tetrahydroimidazo[1,5,4-de][1,4]benzoxazin-9-yl]methyl}-2-phenylacetamide], the half-maximal inhibitory concentration (IC50) in test [1] (setting [3]) and in test [2] was under 0.1 µM throughout.
For `CCOC(=O)/C=C/c1cc(-c2c(C)noc2C)c2c3c1[nH]c(=O)n3[C@@H](c1ccccn1)CO2` [Example 86, ethyl (2E)-3-[(4S)-7-(3,5-dimethylisoxazol-4-yl)-2-oxo-4-pyridin-2-yl-1,2,4,5-tetrahydroimidazo[1,5,4-de][1,4]benzoxazin-9-yl]acrylate 2,2,2-trifluoroacetate], the IC50 in test [1] (setting [3]) is under 0.1 µM; in test [2] it was 0.1 to 1 µM.
The matching figures for `Cc1noc(C)c1-c1ccc2nc(C3CCN(S(C)(=O)=O)C3)n3c2c1OC[C@@H]3c1ccccn1` (mixture of isomers) [Example 115, (4S)-7-(3,5-dimethylisoxazol-4-yl)-2-[1-(methylsulfonyl)pyrrolidin-3-yl]-4-pyridin-2-yl-4,5-dihydroimidazo[1,5,4-de][1,4]benzoxazine (mixture of diastereomers)]: under 0.1 µM and under 0.1 µM.
For the compound `Cc1noc(C)c1-c1ccc2nc(C3CCN(C(=O)OC(C)(C)C)C3)n3c2c1OC[C@@H]3c1ccccn1` (single isomer, unassigned; diastereoisomer 2) [Example 101B], the IC50 in test [1] (setting [3]) and in test [2] was under 0.1 µM each time.
